Experimental data as given in patent US12233161B1, “Lipids and lipid nanoparticle formulations” (LONGUIDE BIOPHARMA CORPORATION, priority 2024, dated 2025).

Legend:
mice [1] = experiment: In vivo delivery of FLuc-mRNA lipid nanoparticles in mice, in vivo imaging (IVIS); details: for IVIS: Fluc-mRNA
Outline: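 Mice (n=3) received about 75 μL FLuc-mRNA LNP per mouse intramuscularly (rectus femoris), intravenously (tail vein), intraperitoneally or subcutaneously (back). After injection, D-luciferin (200 μL, 15 mg/mL) was given i.p. 10-15 min before IVIS imaging.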

[2] = Particle size and PDI of nucleic acid lipid nanoparticle preparations by dynamic light scattering; type: physicochemical
Outline: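 Nanoparticle suspension (about 0.04 mg/mL mRNA) diluted in ultrapure water, mixed by gentle pipetting; particle size measured by dynamic light scattering. Zeta potential measured on the recovered sample after further dilution in ultrapure water.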

[3] = Potential characterization of nucleic acid lipid nanoparticle preparations; type: physicochemical; details: Fluc-circ-RNA LNP, preparation given IV
Outline: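 Nanoparticles (about 0.04 mg/mL mRNA) were diluted in ultrapure water for Malvern ZEN3700 measurement: 20 μL into 780 μL for potential alone, or 27.5 μL into 200 μL for DLS particle size followed by addition of 600 μL water for potential.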

mice [4] = experiment: In vivo delivery of FLuc-circ-RNA lipid nanoparticles in mice; details: Fluc-circ-RNA LNP, IV
Experimental: Lipid nanoparticles loaded with nucleic acid drugs were prepared according to step 2, replacing FLuc-mRNA with FLuc-circ-RNA (Hongene Biotech Corporation, Shanghai). After formulation, the nanoparticles were administered via intramuscular injection (into the quadriceps femoris muscle of mice), intravenous injection (into the tail vein of mice), intraperitoneal injection, or subcutaneous injection (subcutaneously on the back). Approximately 75 μL was injected per mouse, with a total of 3 mice per group. In vivo imaging (PerkinElmer, IVIS Lumina III) was performed after a certain period of time. Ten to fifteen minutes before imaging, 200 μL of a 15 mg/mL D-Luciferin working solution was injected intraperitoneally, followed by imaging analysis using the in vivo imaging system.

[5] = IV, liver, DMG-PEG2000:DOPE:Chol:compound 1.40:11.15:38.95:48.50, N/P 30
[6] = IV, liver, DMG-PEG2000:DSPC:Chol:compound 1.00:11.50:27.50:60.00, N/P 30
[7] = IV, lung, DMG-PEG2000:DOPE:Chol:compound 1.40:11.15:38.95:48.50, N/P 30
[8] = IV, lung, DMG-PEG2000:DSPC:Chol:compound 1.00:11.50:27.50:60.00, N/P 30
[9] = IV, spleen, DMG-PEG2000:DOPE:Chol:compound 1.40:11.15:38.95:48.50, N/P 30
[10] = IV, spleen, DMG-PEG2000:DSPC:Chol:compound 1.00:11.50:27.50:60.00, N/P 30
[11] = DMG-PEG2000:DOPE:Chol:compound 1.40:11.15:38.95:48.50, N/P 30
[12] = DMG-PEG2000:DSPC:Chol:compound 1.00:11.50:27.50:60.00, N/P 30
[13] = Fluc-circ-RNA LNP, preparation given IV

PDI [2, 11]: 0.38
Particle size (nm) [2, 11]: 78.75 nm
PDI [2, 12]: 0.23
Particle size (nm) [2, 12]: 157.00 nm
PDI [2, 13]: 0.24
Particle size (nm) [2, 13]: 161.2 nm
Zeta potential (mV) [3]: 14.23 mV
SMILES: [2H]C([2H])([2H])[N+](CCCN(CC(O)C(=O)NCCCCCCCCCCCC)CC(O)C(=O)NCCCCCCCCCCCC)(CCCN(CC(O)C(=O)NCCCCCCCCCCCC)CC(O)C(=O)NCCCCCCCCCCCC)C([2H])([2H])[2H] (stereo not shown) [Compound L0346]
IVIS (mice [1]; IM, DMG-PEG2000:DOPE:Chol:compound 1.40:11.15:38.95:48.50, N/P 30): 3.49E+05
IVIS (mice [1]; IV, body, DMG-PEG2000:DOPE:Chol:compound 1.40:11.15:38.95:48.50, N/P 30): 1.95E+08
IVIS (mice [1]; IV, body, DMG-PEG2000:DSPC:Chol:compound 1.00:11.50:27.50:60.00, N/P 30): 3.93E+08
% of organ targeting (mice [1]; [5]): 0.84%
IVIS (mice [1]; [5]): 2.65E+06
% of organ targeting (mice [1]; [6]): 0.56%
IVIS (mice [1]; [6]): 7.32E+06
% of organ targeting (mice [1]; [7]): 98.01%
IVIS (mice [1]; [7]): 3.10E+08
% of organ targeting (mice [1]; [8]): 98.90%
IVIS (mice [1]; [8]): 1.28E+09
% of organ targeting (mice [1]; [9]): 1.16%
IVIS (mice [1]; [9]): 3.66E+06
% of organ targeting (mice [1]; [10]): 0.54%
IVIS (mice [1]; [10]): 6.96E+06
% of organ targeting (mice [4]; liver): 0.87%
% of organ targeting (mice [4]; lung): 98.45%
% of organ targeting (mice [4]; spleen): 0.69%
